Experiments:
Type in all cases: cell-based
NaV1.7 [1] = target: T1, NaV1.7 (Homo sapiens (Human), UniProt Q15858); assay: Patch voltage clamp electrophysiology (EP), affinity for the inactivated state of Nav1.7; conditions: HEK-293 cells expressing human Nav1.7 with β1 subunit
Experimental: (§1) The following patch voltage clamp electrophysiology studies were performed on representative compounds of the invention using human embryonic kidney cells (HEK), permanently transfected with an expression vector containing the full-length cDNA coding for the desired human sodium channel α-subunit, grown in culture media containing 10% FBS, 1% PSG, and 0.5 mg/mL G418 at 37° C. with 5% CO2. […] Nav1.7 and Nav1.5 cDNAs (NM_002977 and AC137587; SCN5A, respectively) were stably expressed in HEK-293 cells. The β1 subunit was coexpressed only in the Nav1.7 cell line.
(§2) Sodium currents were measured using the patch clamp technique in the whole-cell configuration using either a PatchXpress automated voltage clamp or manually using an Axopatch 200B (Axon Instruments) or Model 2400 (A-M systems) amplifier. […] The pipette was filled with a solution comprised of: 5 mM NaCl, 10 mM CsCl, 120 mM CsF, 0.1 mM CaCl2, 2 mM MgCl2, 10 mM HEPES, 10 mM EGTA; and adjusted to pH 7.2 with CsOH. The external solution had the following composition: 140 mM NaCl, 5 mM KCl, 2 mM CaCl2, 1 mM MgCl2, 10 mM HEPES; and adjusted to pH 7.4 with NaOH. In some studies, the external sodium was reduced by equimolar replacement with choline. Osmolarity in the CsF internal and NaCl external solutions was adjusted to 300 mOsm/kg and 310 mOsm/kg with glucose, respectively. All recordings were performed at ambient temperature in a bath chamber with a volume of 150 μL. Control sodium currents were measured in 0.5% DMSO. Controls and representative compounds of the invention were applied to the recording chamber through a 4-pinch or 8-pinch valve bath perfusion system manufactured by ALA Scientific Instruments.
Series resistance compensation was applied (60-80%). […] All statistics in this study are given as mean±SD.
(§3) The membrane potential was maintained at a voltage where inactivation of the channel is complete (which was −60 mV for both Nav1.7 and Nav1.5). The voltage is then stepped back to a very negative (Vhold=−150 mV) voltage for 20 ms and then a test pulse is applied to quantify the compound block. […] The percent decrease in sodium current following wash-on of compound was taken as the percent block of sodium channels.
(§4) The Example numbers provided in Table 1 and Table 2 correspond to the Examples herein: […]

NaV1.5 [2] = target: T2, NaV1.5 (Homo sapiens (Human), UniProt Q14524); assay: Patch voltage clamp electrophysiology (EP), affinity for the inactivated state of Nav1.5
T2 sequence (Q14524 whole entry): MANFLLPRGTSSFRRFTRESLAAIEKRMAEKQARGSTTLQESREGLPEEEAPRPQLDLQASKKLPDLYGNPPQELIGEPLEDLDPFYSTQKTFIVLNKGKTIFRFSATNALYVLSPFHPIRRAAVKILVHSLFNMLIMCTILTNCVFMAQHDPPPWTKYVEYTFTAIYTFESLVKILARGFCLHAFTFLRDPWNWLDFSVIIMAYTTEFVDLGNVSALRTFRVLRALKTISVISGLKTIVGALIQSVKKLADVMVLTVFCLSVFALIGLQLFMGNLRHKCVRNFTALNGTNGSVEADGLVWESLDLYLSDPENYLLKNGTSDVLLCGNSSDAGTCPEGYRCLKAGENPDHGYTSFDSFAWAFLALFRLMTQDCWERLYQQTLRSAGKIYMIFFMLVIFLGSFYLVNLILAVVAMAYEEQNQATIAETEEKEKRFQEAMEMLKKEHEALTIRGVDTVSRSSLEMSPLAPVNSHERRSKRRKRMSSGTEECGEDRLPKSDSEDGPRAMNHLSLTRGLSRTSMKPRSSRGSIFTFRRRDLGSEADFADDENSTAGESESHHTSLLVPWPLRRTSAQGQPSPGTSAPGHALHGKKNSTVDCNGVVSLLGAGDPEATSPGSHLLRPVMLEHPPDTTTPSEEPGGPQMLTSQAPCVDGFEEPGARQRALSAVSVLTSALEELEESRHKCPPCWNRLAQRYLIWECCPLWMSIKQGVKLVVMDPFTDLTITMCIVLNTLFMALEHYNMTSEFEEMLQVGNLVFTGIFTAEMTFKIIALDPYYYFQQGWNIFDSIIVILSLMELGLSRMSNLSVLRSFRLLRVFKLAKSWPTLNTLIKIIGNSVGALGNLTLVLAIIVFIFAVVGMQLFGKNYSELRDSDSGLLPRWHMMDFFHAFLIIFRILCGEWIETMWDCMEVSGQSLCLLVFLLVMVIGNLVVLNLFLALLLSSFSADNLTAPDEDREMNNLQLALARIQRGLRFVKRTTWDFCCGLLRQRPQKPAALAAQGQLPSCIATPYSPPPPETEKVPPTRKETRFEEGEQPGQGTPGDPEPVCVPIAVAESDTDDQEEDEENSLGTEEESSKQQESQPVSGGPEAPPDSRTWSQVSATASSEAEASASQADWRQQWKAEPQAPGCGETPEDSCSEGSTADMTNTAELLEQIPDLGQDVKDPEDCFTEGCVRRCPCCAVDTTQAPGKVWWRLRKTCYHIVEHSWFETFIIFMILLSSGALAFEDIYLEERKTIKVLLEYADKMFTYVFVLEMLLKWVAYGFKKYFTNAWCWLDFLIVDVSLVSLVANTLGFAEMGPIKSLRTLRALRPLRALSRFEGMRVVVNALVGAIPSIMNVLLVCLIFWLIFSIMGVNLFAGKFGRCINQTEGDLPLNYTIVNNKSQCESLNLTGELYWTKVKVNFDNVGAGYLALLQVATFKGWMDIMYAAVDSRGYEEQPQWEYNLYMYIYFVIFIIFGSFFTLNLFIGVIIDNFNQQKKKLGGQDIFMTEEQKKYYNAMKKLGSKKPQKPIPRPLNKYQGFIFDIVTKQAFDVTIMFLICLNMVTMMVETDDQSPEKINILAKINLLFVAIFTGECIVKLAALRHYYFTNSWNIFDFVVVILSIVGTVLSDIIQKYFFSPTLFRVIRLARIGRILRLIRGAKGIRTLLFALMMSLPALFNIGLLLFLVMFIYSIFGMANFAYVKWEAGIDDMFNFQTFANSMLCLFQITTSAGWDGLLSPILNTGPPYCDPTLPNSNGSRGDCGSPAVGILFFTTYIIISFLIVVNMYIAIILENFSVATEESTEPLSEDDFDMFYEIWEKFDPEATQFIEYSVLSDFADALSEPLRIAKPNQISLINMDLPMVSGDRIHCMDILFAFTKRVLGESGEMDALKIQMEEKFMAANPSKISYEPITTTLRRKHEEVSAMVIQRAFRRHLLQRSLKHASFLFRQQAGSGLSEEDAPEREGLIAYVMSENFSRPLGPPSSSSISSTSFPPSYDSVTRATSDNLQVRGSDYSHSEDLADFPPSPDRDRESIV
Experimental: Patch voltage clamp electrophysiology allows for the direct measurement and quantification of block of voltage-gated sodium channels (Nav's), and allows the determination of the time- and voltage-dependence of block which has been interpreted as differential binding to the resting, open, and inactivated states of the sodium channel (Hille, B., Journal of General Physiology (1977), 69: 497-515).
as §1, §2
Currents were recorded at 40 kHz sampling frequency, filtered at […], and stored using a Digidata-1322A analogue/digital interface with the pClamp software (Axon Instruments). Series resistance compensation was applied (60-80%). […] All statistics in this study are given as mean±SD.
as §3, §4

NaV1.5 [3] = target: T2, NaV1.5; assay: NaV flux assay, inhibition of NaV1.5; conditions: NaV flux data, included when EP data is not available
NaV1.7 [4] = target: T1, NaV1.7; assay: NaV flux assay, inhibition of NaV1.7; conditions: NaV flux data, included when EP data is not available
[5] = HEK-293 cells expressing human Nav1.5, read-out: NaV1.5 IC50
[6] = HEK-293 cells expressing human Nav1.5, read-out: NaV1.5 IC50(μM) (class)

T1 sequence (Q15858 other isoform, or with tags, fused parts or gaps): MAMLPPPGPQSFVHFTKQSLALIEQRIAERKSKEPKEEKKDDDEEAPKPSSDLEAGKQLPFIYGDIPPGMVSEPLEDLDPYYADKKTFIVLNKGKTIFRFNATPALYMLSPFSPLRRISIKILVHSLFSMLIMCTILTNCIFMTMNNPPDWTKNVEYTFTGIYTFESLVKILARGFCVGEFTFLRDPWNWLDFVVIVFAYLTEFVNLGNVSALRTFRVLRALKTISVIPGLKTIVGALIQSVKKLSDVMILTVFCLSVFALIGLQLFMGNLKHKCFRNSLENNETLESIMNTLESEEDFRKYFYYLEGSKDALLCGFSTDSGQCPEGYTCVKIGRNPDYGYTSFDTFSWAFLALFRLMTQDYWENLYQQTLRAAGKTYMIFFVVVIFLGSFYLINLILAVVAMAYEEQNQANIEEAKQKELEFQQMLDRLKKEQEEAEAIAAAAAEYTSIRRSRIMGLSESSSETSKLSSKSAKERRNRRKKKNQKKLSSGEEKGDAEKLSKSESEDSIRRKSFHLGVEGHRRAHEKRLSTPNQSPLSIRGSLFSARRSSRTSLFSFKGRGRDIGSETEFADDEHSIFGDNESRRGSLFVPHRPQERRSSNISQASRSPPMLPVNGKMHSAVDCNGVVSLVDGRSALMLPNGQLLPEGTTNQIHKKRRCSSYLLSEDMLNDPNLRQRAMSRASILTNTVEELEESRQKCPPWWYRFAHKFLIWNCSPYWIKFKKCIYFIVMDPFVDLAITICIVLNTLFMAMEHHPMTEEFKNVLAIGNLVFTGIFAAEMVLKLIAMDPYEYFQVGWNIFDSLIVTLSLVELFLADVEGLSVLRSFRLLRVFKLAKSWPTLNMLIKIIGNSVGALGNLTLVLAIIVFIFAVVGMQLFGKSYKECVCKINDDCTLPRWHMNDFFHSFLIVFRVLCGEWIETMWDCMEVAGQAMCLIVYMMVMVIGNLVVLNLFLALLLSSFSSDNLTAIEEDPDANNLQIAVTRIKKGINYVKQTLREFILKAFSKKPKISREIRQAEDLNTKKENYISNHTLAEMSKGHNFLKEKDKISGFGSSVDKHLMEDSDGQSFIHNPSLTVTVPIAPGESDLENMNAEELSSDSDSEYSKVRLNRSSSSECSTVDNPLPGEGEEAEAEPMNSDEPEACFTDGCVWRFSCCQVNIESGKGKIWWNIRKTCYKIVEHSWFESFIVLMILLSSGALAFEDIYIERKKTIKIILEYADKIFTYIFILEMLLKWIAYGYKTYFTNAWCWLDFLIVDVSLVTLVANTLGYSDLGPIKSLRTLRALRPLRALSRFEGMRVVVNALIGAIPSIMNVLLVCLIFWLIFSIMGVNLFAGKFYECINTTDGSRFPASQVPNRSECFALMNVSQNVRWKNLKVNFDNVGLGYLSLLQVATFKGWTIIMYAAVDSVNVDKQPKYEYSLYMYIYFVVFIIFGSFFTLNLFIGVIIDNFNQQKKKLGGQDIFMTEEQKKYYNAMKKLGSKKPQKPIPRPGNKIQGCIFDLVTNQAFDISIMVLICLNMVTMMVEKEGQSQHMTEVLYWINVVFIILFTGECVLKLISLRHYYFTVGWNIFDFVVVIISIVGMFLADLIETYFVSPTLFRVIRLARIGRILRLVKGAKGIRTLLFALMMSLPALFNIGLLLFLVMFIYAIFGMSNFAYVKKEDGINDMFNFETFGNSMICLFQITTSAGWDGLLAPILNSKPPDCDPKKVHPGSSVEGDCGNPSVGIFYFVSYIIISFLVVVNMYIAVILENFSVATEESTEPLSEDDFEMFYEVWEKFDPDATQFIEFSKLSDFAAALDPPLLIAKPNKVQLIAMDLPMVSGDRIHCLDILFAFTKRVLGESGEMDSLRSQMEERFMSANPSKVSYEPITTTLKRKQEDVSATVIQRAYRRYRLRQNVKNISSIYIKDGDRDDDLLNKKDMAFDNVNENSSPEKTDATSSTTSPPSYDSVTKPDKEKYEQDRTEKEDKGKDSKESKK
T1 sequence (Q07699 19-218 partner): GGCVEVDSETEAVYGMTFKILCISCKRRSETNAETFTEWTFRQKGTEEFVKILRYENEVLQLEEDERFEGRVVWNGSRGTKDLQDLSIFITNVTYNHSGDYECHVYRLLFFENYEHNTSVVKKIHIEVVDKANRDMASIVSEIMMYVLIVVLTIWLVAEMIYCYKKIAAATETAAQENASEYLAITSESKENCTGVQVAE

Row | Compound | IC50 (NaV1.7 [1]; read-out: NaV1.7 (IC50 class)) | IC50 (NaV1.7 [1]; read-out: NaV1.7 IC50) | IC50 (NaV1.7 [4]) | IC50 (NaV1.5 [2]; [5]) | IC50 (NaV1.5 [2]; [6]) | IC50 (NaV1.5 [3])
1 | O=S(=O)(Nc1ncns1)c1cc(F)c(OCC2(F)CNCCC2c2ccc(F)cc2)cc1F (stereo not shown) [Example 47, 2,5-difluoro-4-((3-fluoro-4-(4-fluorophenyl)piperidin-3-yl)methoxy)-N-(1,2,4-thiadiazol-5-yl)benzenesulfonamide] | < 100 nM | 50.7 nM | – | > 10 µM | > 10 µM | –
2 | Cn1cns/c1=N/S(=O)(=O)c1cc(F)c(OC[C@@H]2CNCC[C@H]2c2ccc(Cl)cc2)cc1F (relative stereo) [Example 78, (E)-4-((trans-4-(4-chlorophenyl)piperidin-3-yl)methoxy)-2,5-difluoro-N-(4-methyl-1,2,4-thiadiazol-5(4H)-ylidene)benzenesulfonamide] | – | – | 4080 nM | – | – | –
3 | O=S(=O)(Nc1ncc(Cl)s1)c1cc(F)c(OC[C@@H]2CNCC[C@H]2c2ccc(F)c(F)c2)cc1F (relative stereo) [Example 61, N-(5-chlorothiazol-2-yl)-4-((trans-4-(3,4-difluorophenyl)piperidin-3-yl)methoxy)-2,5-difluorobenzenesulfonamide] | < 100 nM | 21.6 nM | – | > 10 µM | > 10 µM | –
4 | O=S(=O)(Nc1ncns1)c1cc(F)c(OC[C@@H]2CNCC[C@H]2c2ccc(Cl)c(F)c2)cc1F (relative stereo) [Example 97, 4-((trans-4-(4-chloro-3-fluorophenyl)piperidin-3-yl)methoxy)-2,5-difluoro-N-(1,2,4-thiadiazol-5-yl)benzenesulfonamide] | – | – | – | – | – | > 10000 nM
5 | O=S(=O)(Nc1ncns1)c1cc(F)c(OC[C@@H]2CNCC[C@H]2c2ccc(Cl)cc2)c(F)c1 (relative stereo) [Example 81, 4-((trans-4-(4-chlorophenyl)piperidin-3-yl)methoxy)-3,5-difluoro-N-(1,2,4-thiadiazol-5-yl)benzenesulfonamide] | – | – | 2320 nM | – | – | –
6 | O=S(=O)(Nc1ncns1)c1ccc(OC[C@@H]2CNCC[C@H]2c2ccc(Cl)cc2)c(F)c1 (relative stereo) [Example 59, 4-((trans-4-(4-chlorophenyl)piperidin-3-yl)methoxy)-3-fluoro-N-(1,2,4-thiadiazol-5-yl)benzenesulfonamide] | < 100 nM | 8.6 nM | – | > 10 µM | > 10 µM | –
7 | CC(=O)NS(=O)(=O)c1cc(F)c(OC[C@@H]2CNCC[C@H]2c2ccc(Cl)cc2)cc1F (relative stereo) [Example 102, N-((4-((trans-4-(4-chlorophenyl)piperidin-3-yl)methoxy)-2,5-difluorophenyl)sulfonyl)acetamide] | – | – | > 10000 nM | – | – | –
8 | O=S(=O)(Nc1ncns1)c1cc(F)c(OC[C@@H]2CNCC[C@H]2c2ccc(F)cc2)cc1F (relative stereo) [Example 45, 2,5-difluoro-4-((trans-4-(4-fluorophenyl)piperidin-3-yl)methoxy)-N-(1,2,4-thiadiazol-5-yl)benzenesulfonamide] | < 100 nM | 6.8 nM | – | > 10 µM | > 10 µM | –
9 | N#Cc1cc(S(=O)(=O)Nc2ncns2)ccc1OC[C@@H]1CNCC[C@H]1c1ccc(Cl)cc1 (relative stereo) [Example 58, 4-((trans-4-(4-chlorophenyl)piperidin-3-yl)methoxy)-3-cyano-N-(1,2,4-thiadiazol-5-yl)benzenesulfonamide] | < 100 nM | 3.3 nM | – | > 10 µM | > 10 µM | –
10 | CN1CC[C@@H](c2ccc(Cl)cc2)[C@H](COc2cc(F)c(S(=O)(=O)Nc3ncns3)cc2F)C1 (relative stereo) [Example 70, 4-((trans-4-(4-chlorophenyl)-1-methylpiperidin-3-yl)methoxy)-2,5-difluoro-N-(1,2,4-thiadiazol-5-yl)benzenesulfonamide] | < 100 nM | 12 nM | – | > 10 µM | > 10 µM | –

Now from value to compound, other results behind:

Row | IC50 (NaV1.7 [1]; read-out: NaV1.7 (IC50 class)) | IC50 (NaV1.7 [1]; read-out: NaV1.7 IC50) | IC50 (NaV1.7 [4]) | Compound | IC50 (NaV1.5 [2]; [5]) | IC50 (NaV1.5 [2]; [6]) | IC50 (NaV1.5 [3])
11 | 100 to 1000 nM | 436 nM | – | NC(=O)N1CC[C@@H](c2ccc(F)c(F)c2)[C@H](COc2cc(F)c(S(=O)(=O)Nc3ncc(Cl)s3)cc2F)C1 (relative stereo) [Example 89, trans-3-((4-(N-(5-chlorothiazol-2-yl)sulfamoyl)-2,5-difluorophenoxy)methyl)-4-(3,4-difluorophenyl)piperidine-1-carboxamide] | > 10 µM | > 10 µM | –
12 | < 100 nM | 82 nM | – | O=C1C[C@@H](c2ccc(F)cc2)[C@H](COc2cc(F)c(S(=O)(=O)Nc3ncns3)cc2F)CN1 (relative stereo) [Example 87, 2,5-difluoro-4-((trans-4-(4-fluorophenyl)-6-oxopiperidin-3-yl)methoxy)-N-(1,2,4-thiadiazol-5-yl)benzenesulfonamide] | > 10 µM | > 10 µM | –
13 | < 100 nM | 0.8 nM | – | O=S(=O)(Nc1ncns1)c1cc(F)c(OC[C@@H]2CNCC[C@H]2c2ccc(Cl)c(Cl)c2)cc1F (relative stereo) [Example 92, 4-((trans-4-(3,4-dichlorophenyl)piperidin-3-yl)methoxy)-2,5-difluoro-N-(1,2,4-thiadiazol-5-yl)benzenesulfonamide] | – | – | > 10000 nM
14 | < 100 nM | 4.8 nM | – | CN1CC[C@H](c2ccc(Cl)cc2)[C@@H](COc2cc(F)c(S(=O)(=O)Nc3ncns3)cc2F)C1 [Example 85, 4-(((3R,4S)-4-(4-chlorophenyl)-1-methylpiperidin-3-yl)methoxy)-2,5-difluoro-N-(1,2,4-thiadiazol-5-yl)benzenesulfonamide] | > 10 µM | > 10 µM | –
15 | – | – | > 10000 nM | CC(C)NC(=O)NS(=O)(=O)c1cc(F)c(OC[C@@H]2CNCC[C@H]2c2ccc(Cl)cc2)cc1F (relative stereo) [Example 105, 4-((trans-4-(4-chlorophenyl)piperidin-3-yl)methoxy)-2,5-difluoro-N-(isopropylcarbamoyl)benzenesulfonamide] | – | – | –
16 | – | – | > 10000 nM | O=C(NS(=O)(=O)c1cc(F)c(OC[C@@H]2CNCC[C@H]2c2ccc(Cl)cc2)cc1F)c1ccccn1 (relative stereo) [Example 99, N-((4-((trans-4-(4-chlorophenyl)piperidin-3-yl)methoxy)-2,5-difluorophenyl)sulfonyl)picolinamide] | – | – | –
17 | 100 to 1000 nM | 130 nM | – | O=S(=O)(Nc1ncns1)c1cc(F)c(OC[C@@H]2CN(CC(F)(F)F)CC[C@H]2c2ccc(Cl)cc2)cc1F (relative stereo) [Example 88, 4-((trans-4-(4-chlorophenyl)-1-(2,2,2-trifluoroethyl)piperidin-3-yl)methoxy)-2,5-difluoro-N-(1,2,4-thiadiazol-5-yl)benzenesulfonamide] | > 10 µM | > 10 µM | –
18 | – | – | > 10000 nM | O=C(NS(=O)(=O)c1cc(F)c(OC[C@@H]2CNCC[C@H]2c2ccc(Cl)cc2)cc1F)c1ccccc1 (relative stereo) [Example 104, N-((4-((trans-4-(4-chlorophenyl)piperidin-3-yl)methoxy)-2,5-difluorophenyl)sulfonyl)benzamide] | – | – | –
19 | – | – | > 10000 nM | N#Cc1cc(S(=O)(=O)NCC(F)(F)F)ccc1OC[C@@H]1CNCC[C@H]1c1ccc(Cl)cc1 (relative stereo) [Example 93, 4-((trans-4-(4-chlorophenyl)piperidin-3-yl)methoxy)-3-cyano-N-(2,2,2-trifluoroethyl)benzenesulfonamide] | – | – | –
20 | 100 to 1000 nM | 331 nM | – | CN1CC[C@@H](c2ccc(Cl)cc2)[C@H](COc2cc(F)c(S(=O)(=O)Nc3ncns3)cc2F)C1 [Example 86, 4-(((3S,4R)-4-(4-chlorophenyl)-1-methylpiperidin-3-yl)methoxy)-2,5-difluoro-N-(1,2,4-thiadiazol-5-yl)benzenesulfonamide] | > 10 µM | > 10 µM | –

Source: patent publication US9630929B2, “Benzenesulfonamide compounds and their use as therapeutic agents” (XENON PHARMACEUTICALS INC., priority 2011, dated 2017)
